Like-named read-outs stand apart in the source and are kept apart here.
What was measured:
[1] = test system: JeKo1; test: In vitro cytotoxicity analysis, JeKo1; format: cell-based; settings: Homo sapiens, JeKo-1
Text: The A549 lung cancer, WiDr colorectal cancer, MCF-7 breast cancer, PC-3 prostate cancer, and OVCAR-3 ovarian cancer cell lines were purchased from the American Type Culture Collection (ATCC, Manassas, Va.) and were maintained in growth media as recommended by the ATCC. The JeKo-1 and JVM-2 mantle cell lymphoma cell lines were purchased from the DSMZ (Brunswick, Germany) and were maintained in growth media as recommended by the vendor. The pediatric rhabdomyosarcoma Rh18 cell line was provided y Dr. P. Houghton (Ohio State University—Nationwide Children's Hospital, Columbus, Ohio) and were maintained in growth media as recommended by Dr. Houghton. All cell culture media were supplemented with L-glutamine and penicillin/streptomycin. All cells were grown under standard culture conditions in CO2 incubators, at 37° C., with 5% CO2, and 100% relative humidity.
Cell viabilities were determined by measuring the cleavage of (sodium 3′-[1-(phenylaminocarbonyl)-3,4-tetrazolium]-bis(4-methoxy-6-nitro)benzene sulfonic acid hydrate) (XTT) to a water-soluble orange formazan by mitochondrial dehydrogenase, following the manufacturer's instructions (Roche Applied Science, Indianapolis, Ind.). Briefly, cell lines were seeded at various cell densities depending on the cell type. The adherent cell lines were allowed to adhere overnight before compound addition, whereas the suspension cell lines were seeded the day of compound addition. Stock concentrations of the compounds were made in DMSO, diluted in culture media and subsequently added to the plates at various final concentrations, then incubated for 72 hours. After the incubation period, the XTT labeling reagent, containing the electron-coupling reagent, was added to each well and incubated for 4 hours. The absorbance of each well was then read at 490 nm with a reference wavelength of 690 nm using a VersaMax™ microplate reader (Sunnyvale, Calif.). Data are expressed as the percentage of growth compared to vehicle-treated cells, as calculated from absorbance and corrected for background absorbance.
Alternatively, cell lines were seeded in 100 μL cell culture medium in 96-well plates. Depending on the cell proliferation rate, cells were seeded at 4,000 to 6,000 cells/well. Suspension cell cultures were initiated with 20,000 cells/well. The cells were incubated overnight at 37° C., and then the drug treatments were started by adding 50 μL medium containing the corresponding drug dilution and DMSO. The final concentration of DMSO onto the cells was 0.5% v/v in all wells. The cells viability was determined using the CellTiter-Glo Luminescent Cell Viability Assay (Promega, Madison, Wis.). The CellTiter-Glo reagent was prepared according to the manufacturer's instructions, and then 50 μL reagent was added to each well for 1 h at rt. The luminescence was measured on an Envision Multilabel Plate Reader (PerkinElmer, Waltham, Mass.). The IC50 values were calculated from the dose-response curve analysis with GraphPad Prism 6.01 (GraphPad Software, La Jolla, Calif.) using the nonlinear regression model 4 Parameter Logistic. Nine concentrations were generated by 1:2 serial dilutions for each IC50 assay. Each drug concentration was evaluated in triplicate or quadruplicate.

[2] = Mouse plasma stability (HPLC); format: in vitro ADME; settings: mouse plasma at 37° C.
[3] = Solubility in phosphate buffered saline (HPLC); format: physicochemical; settings: for solubility: aqueous buffer, read-out: Buffer Soluble
[4] = test system: cytotoxicity or splicing modulation; test: Rapid onset of cytotoxicity or splicing modulation; format: cell-based; settings: maximum cytotoxicity or splicing modulation within 5 hours of drug treatment
Procedure: The cell were seeded in of 100 μl of medium into 96-well plates (HeLa at 4×10^4 cell/well; SK_MEL_2 at 6×10^4 cell/well), they were allowed to attach overnight, and then treatments started by adding 50 μl of medium containing Sudemycin D6 to produce a final concentration of 1 μM and DMSO to 0.5% v/v final into the experimental well. Continuous drug treatments were run in the same plate, using concentrations of 0, 62.5, 125, 250, 500 & 1000 nM final. DMSO was added into all wells, including non-treated wells to 0.5% v/v final concentration. For wells where the drug was withdrawn, the medium was carefully aspirated after 1, 2, 3 and 4 hours after the addition of the drug, the cells were washed once with PBS and then 150 μl of fresh cell culture medium containing 0.5% v/v DMSO was added into all washed out wells. After 72 hours of the addition of drug, the cell viability was determined using CellTiter-Glo luminescent cell viability assay (Promega, Madison, Wis.), and Sudemycin D6 cytotoxicity was calculated as the percentage of cell proliferation inhibition against the control treatment DMSO.

[5] = test system: MDM2 alternative splicing in Rh18 cells; test: In vitro alternative splicing assay (MDM2, RT-PCR); format: cell-based; settings: Rh18 cells, 8 h exposure; Table II
Procedure: Briefly, following an 8 h exposure of exponentially growing cells to drug, total RNA was isolated using TRIzol reagent (Invitrogen, Carlsbad, Calif.). Total RNA (1 μg) was used to convert the mRNA to cDNA by using random primers, Oligo(dT)16 and Omniscript Reverse Transcription Kit (Qiagen, Germantown, Md.). PCR analyses were performed using specific oligonucleotides (see Table I) and standard amplification protocols. PCR products were separated by agarose gel electrophoresis, visualized by ethidium bromide staining on an UV transilluminator, and recorded. PCR band sizes were calculated by comparing them to the standard EZ Load 100-bp PCR Molecular Ruler (BioRad Laboratories, Hercules, Calif.).

[6] = test system: SK-MEL-2; test: Drug combination assay, SK-MEL-2; format: cell-based; settings: for CI in SK-MEL-2 with compound 19: Combination Index at ED50, CalcuSyn 2.1, listed drug + compound 19
Procedure: (§1) Preliminary cytotoxic screenings for each drug used in drug combination assays were performed to determine their cytotoxic dose range. […] Eight concentrations were established by 1:3 serial dilutions of the single drugs and their combinations with the splicing modulators. All drug concentrations were evaluated in triplicate in 96-well cell culture plates. Assays of individual drugs and drug combinations were run on the same tissue culture plate. Cell viability was determined using the CellTiter-Glo reagent.
(§2) Luminescence data obtained from the cell viability determinations were formatted per the requirements of the analytical software (viability data range: >0 and <1). The formatted data were analyzed with the software CalcuSyn 2.1 (Biosoft, Cambridge, UK), which provides quantitative CI values for the drug interaction analyses (see ranges in Supplementary Table S2).

[7] = test system: Sk-N-AS; test: Drug combination assay, Sk-N-AS neuroblastoma; format: cell-based; settings: neuroblastoma cell line SK-NA-S; CalcuSyn 2.1
Procedure: as §1, §2

[8] = test system: cell lines investigated; test: Drug combination assays, cell line not stated; format: cell-based
Procedure: as §1, §2

[9] = listed drug combined with compound 19, Ineffective = drug IC50 much higher than 1 μM

CC(=O)O[C@@H](C)/C=C\C(=O)N[C@H]1CC[C@@H](C/C=C(C)/C=C/[C@@H]2C[C@]3(CO3)CC(C)(C)O2)CC1
IC50 ([1]; Table II): 100 nM
Plasma Stability [2]: No
Buffer Soluble [3]: No
Rapid Onset [4]: Yes (“Yes” indicates maximum cytotoxicity or splicing modulation is seen within 5 hours of drug treatment.)
MDM2 Splicing Effects [5]: Yes

CC(/C=C/[C@@H]1C[C@]2(CO2)CC(C)(C)O1)=C\C[C@H]1OC[C@@H](NC(=O)/C=C\[C@H](C)OC(=O)C(C)C)CO1
IC50 ([1]; Table II): 220 nM
Plasma Stability [2]: No
solubility [3]: > 10 µM
Rapid Onset [4]: No
MDM2 Splicing Effects [5]: Yes

CC(/C=C/C1C[C@]2(CO2)CC(C)(C)O1)=C\C[C@H]1OC[C@@H](NC(=O)/C=C\[C@H](C)OC(=O)N(C)C)CO1 (stereo partly drawn)
IC50 ([1]; Table II): 300 nM
Plasma Stability [2]: Yes (“Yes” indicates mouse plasma stability is >5 hours in mouse plasma at 37 °C as determined by HPLC.)
solubility [3]: > 10 µM
Rapid Onset [4]: No
MDM2 Splicing Effects [5]: Yes

CC(/C=C/[C@@H]1C[C@]2(CO2)CC(C)(C)O1)=C\C[C@H]1CC[C@@H](NC(=O)/C=C\[C@H](C)OC(=O)N(C)CCN(C)C)CC1
IC50 ([1]; Table II): 170 nM
solubility [3]: > 10 µM

CC(/C=C/[C@@H]1C[C@]2(CO2)CC(C)(C)O1)=C\C[C@H]1CC[C@@H](NC(=O)/C=C\[C@H](C)OC(N)=O)CC1
IC50 ([1]; Table II): 100 nM

CC(/C=C/[C@@H]1C[C@]2(CO2)CC(C)(C)O1)=C\C[C@H]1OC[C@@H](NC(=O)/C=C\[C@H](C)OC(=O)NC(C)(C)C)CO1
IC50 ([1]; Table III): > 1000 nM

CCCN(C)C(=O)O[C@@H](C)/C=C\C(=O)N[C@H]1CO[C@@H](C/C=C(C)/C=C/[C@@H]2C[C@]3(CO3)CC(C)(C)O2)OC1
IC50 ([1]; Table III): 610 nM

CCCCN(C)C(=O)O[C@@H](C)/C=C\C(=O)N[C@H]1CO[C@@H](C/C=C(C)/C=C/[C@@H]2C[C@]3(CO3)CC(C)(C)O2)OC1
IC50 ([1]; Table III): 690 nM

CC(/C=C/[C@@H]1C[C@]2(CO2)CC(C)(C)O1)=C\C[C@H]1OC[C@@H](NC(=O)/C=C\[C@H](C)OC(=O)N(C)C(C)C)CO1
IC50 ([1]; Table III): 700 nM

CC(/C=C/[C@@H]1C[C@]2(CO2)CC(C)(C)O1)=C\C[C@H]1OC[C@@H](NC(=O)/C=C\[C@H](C)OC(=O)N(C)C(C)(C)C)CO1
IC50 ([1]; Table III): 780 nM

CC(/C=C/[C@@H]1C[C@]2(CO2)CC(C)(C)O1)=C\C[C@H]1OC[C@@H](NC(=O)/C=C\[C@H](C)OC(=O)N(C)C)CO1
IC50 ([1]; Table III): 300 nM

O=c1[nH]cc(F)c(=O)[nH]1 [5-Fluorouracil]
Interaction Type [6, 9]: Ineffective^a

Cn1c(=O)n(-c2ccc(C(C)(C)C#N)cc2)c2c3cc(-c4cnc5ccccc5c4)ccc3ncc21 [BEZ 235]
CI in SK-MEL-2 with compound 19 [6]: 0.21
Interaction Type [6, 9]: Strong
drug interaction with compound 19 [7]: strong synergism
drug interaction with compound 20 [7]: strong synergism
drug interaction with compound 19 (panel of 23 drugs) [8]: strongest synergy

C/C(=C\C(=O)Nc1ccccc1C(=O)O)c1ccc2ccccc2c1 [BIBR 1532]
Interaction Type [6]: Ineffective

CC(C)C[C@H](NC(=O)[C@H](Cc1ccccc1)NC(=O)c1cnccn1)B(O)O [Bortezomib]
Interaction Type [6, 9]: Antagonism (1.45-3.3)

CC[C@@]1(O)C(=O)OCc2c1cc1n(c2=O)Cc2cc3ccccc3nc2-1 [Camptothecin]
CI in SK-MEL-2 with compound 19 [6]: 0.74
Interaction Type [6, 9]: Antagonism (1.45-3.3)

COc1cccc2c1C(=O)c1c(O)c3c(c(O)c1C2=O)C[C@@](O)(C(=O)CO)C[C@@H]3O[C@H]1C[C@H](N)[C@H](O)[C@H](C)O1 [Doxorubicin]
Interaction Type [6, 9]: Ineffective

COc1cc([C@@H]2c3cc4c(cc3[C@@H](O[C@@H]3O[C@@H]5CO[C@@H](C)O[C@H]5[C@H](O)[C@H]3O)[C@H]3COC(=O)[C@H]23)OCO4)cc(OC)c1O [Etoposide]
Interaction Type [6]: Ineffective

COC(=O)C[C@](O)(CCC(C)(C)O)C(=O)O[C@@H]1C(OC)=C[C@]23CCCN2CCc2cc4c(cc2[C@H]13)OCO4 [Harringtonine]
Interaction Type [6, 9]: Antagonism (1.45-3.3)

NC(=O)NO [Hydroxyurea]
Interaction Type [6]: Ineffective

Cc1ccc(NC(=O)c2ccc(CN3CCN(C)CC3)cc2)cc1Nc1nccc(-c2cccnc2)n1 [Imatinib]
Interaction Type [6, 9]: Antagonism (1.45-3.3)

O=C(O)c1nn(Cc2ccc(Cl)cc2Cl)c2ccccc12 [Lonidamine]
Interaction Type [6, 9]: Ineffective

CO[C@@]12[C@H](COC(N)=O)C3=C(C(=O)C(C)=C(N)C3=O)N1C[C@@H]1N[C@@H]12 [Mitomycin C]
Interaction Type [6]: Ineffective

CCCCCCCCCCCCNC(=O)NC1CCCCC1 [NCND]
Interaction Type [6, 9]: Slightly
cytotoxic effect of drug alone ([8]; single drug in combination assays): Neither AUDA nor NCND alone produced a cytotoxic effect

COc1ccc(C2=N[C@@H](c3ccc(Cl)cc3)[C@@H](c3ccc(Cl)cc3)N2C(=O)N2CCNC(=O)C2)c(OC(C)C)c1 [Nutlin-3]
Interaction Type [6, 9]: Ineffective

Cc1ncc(C[n+]2csc(CCO)c2C)c(=O)[nH]1 [Oxythiamine]
Interaction Type [6, 9]: Ineffective

Cc1[nH]c2ccccc2c1CCNCc1ccc(/C=C/C(=O)NO)cc1 [Panobinostat]
CI in SK-MEL-2 with compound 19 [6]: 0.76

COc1ccc2c(c1)/C(=C/c1cnc[nH]1)C(=O)N2 [SU 9516]
CI in SK-MEL-2 with compound 19 [6]: 0.83
Interaction Type [6, 9]: Antagonism (1.45-3.3)

COc1cc(C2Oc3cc([C@H]4Oc5cc(O)cc(O)c5C(=O)[C@@H]4O)ccc3OC2CO)ccc1O (stereo partly drawn) [Silibinin]
CI in SK-MEL-2 with compound 19 [6]: 0.89
Interaction Type [6, 9]: Moderate

CNC(=O)c1cc(Oc2ccc(NC(=O)Nc3ccc(Cl)c(C(F)(F)F)c3)cc2)ccn1 [Sorafenib]
CI in SK-MEL-2 with compound 19 [6]: 0.43
drug interaction with compound 19 [7]: predominantly synergistic
drug interaction with compound 19 (panel of 23 drugs) [8]: second strongest synergistic agent

CC(=O)O[C@H]1C(=O)[C@@]2(C)[C@H]([C@H](OC(=O)c3ccccc3)[C@]3(O)C[C@H](OC(=O)[C@H](O)[C@@H](NC(=O)c4ccccc4)c4ccccc4)C(C)=C1C3(C)C)[C@]1(OC(C)=O)CO[C@@H]1C[C@@H]2O [Taxol]
Interaction Type [6, 9]: Antagonism (1.45-3.3)
